Reference: US9989519B1, “Method for determining in vitro bioequivalence of a sucralfate suspension sample to a sucralfate suspension reference listed drug (RLD)” (Clayton Pharmaceuticals, LLC, priority 2017, dated 2018)

Tested on: Caco-2 cell monolayers
Assay: Indomethacin-induced damage (loss of TEER) in Caco-2 cell monolayers, assay development
Type: cell-based, human
Procedure: Considering the fact that the Caco-2 cell model mimics the human intestinal mucosa, and that the intraluminal pH of the small intestine ranges from approximately 6.0 to 7.4, evaluation of the damage induced by indomethacin (the chosen ulcerogenic agent, the use of which was previously reported) was performed at these two pH conditions. The choice of 0.75 mM indomethacin was based on earlier observations reported for a similar evaluation using Caco-2 cells for this initial assay development stage. For each pH condition, the damage was measured by comparing the TEER values of indomethacin-treated cell monolayers with those of control cell monolayers before and after the assay, and the % of TEER remaining (compared to the control treatment) was calculated. The results are illustrated below in FIG. 7. […] In contrast, for the assay with the pH condition of 6.0, approximately 50% of the TEER was lost by two hours and nearly 80% of the TEER was lost by the end of the assay duration of 5 hours. […] Therefore, pH 6.0 was selected as the optimal pH condition on the apical (modeling the luminal) side for this assay. It was also noted that the majority of the damage was caused between 2 and 3 hours of duration; any additional damage after three hours was marginal. For this reason, further evaluations were performed at a truncated duration of 2 to 3 hours. Considering the fact that significant damage to the cells was induced post two hours in the assessment above and the fact that a shorter assay duration would be desirable for the purposes of experimental logistics, different concentrations (1, 1.5 and 2 mM) of indomethacin were tested to understand the extent of damage caused to the cell monolayers as a function of indomethacin concentration using apical pH of 6.0 and a 3 hour duration. […] Therefore, a concentration of 2 mM was selected as the optimal concentration for this assay.

## COc1ccc2c(c1)c(CC(=O)O)c(C)n2C(=O)c1ccc(Cl)cc1 [indomethacin]
2 mM (1, 1.5 and 2 mM tested), apical pH 6.0, 3 hour duration
  damage to the cell monolayers as a function of indomethacin concentration: Maximum damage
Indomethacin 0.75 mM, apical pH 6.0, 5 hours
  TEER lost: ~80%
Indomethacin 0.75 mM, apical pH 6.0, two hours
  TEER lost: approximately 50%
Indomethacin 0.75 mM, pH 7.4, 5 hours
  loss of TEER: a significant loss of TEER was not observed
